The record followed here is patent US8680159B2, “Bradykinin 1 receptor modulating compounds” (Gruenenthal GmbH, priority 2010, dated 2014).

In the first assay the target is T1, B1R receptor of the rat (CHO K1 cells stably transfected with the B1R gene of the rat) (Rattus norvegicus, UniProt P97583).
T1 construct: expressed in transfected cells; host or cells: CHO K1 cells (Chinese hamster ovary), stably transfected
T1 sequence (P97583 1-337): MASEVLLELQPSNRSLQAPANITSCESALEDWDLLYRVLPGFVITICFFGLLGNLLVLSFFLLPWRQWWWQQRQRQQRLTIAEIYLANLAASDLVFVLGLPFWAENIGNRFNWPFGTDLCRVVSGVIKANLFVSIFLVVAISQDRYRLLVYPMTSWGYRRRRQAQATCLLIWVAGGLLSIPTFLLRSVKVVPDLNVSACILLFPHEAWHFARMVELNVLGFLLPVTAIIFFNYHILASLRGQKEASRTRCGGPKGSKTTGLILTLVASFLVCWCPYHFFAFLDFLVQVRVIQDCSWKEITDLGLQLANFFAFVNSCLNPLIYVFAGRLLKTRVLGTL
Description: Functional study on the bradykinin receptor 1 (B1R), Ca2+ fluorescence (Fluo-4) FLIPR/Novostar assay, rB1R cells. The format is cell-based. To be noted: CHO-K1, 10 μM, library compounds CC_H, read-out: % Inhibition (r-B1R) at 10 μM. The essentials:
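Test compounds (10 μM) were added first and the Ca2+ rise was scored as % activation against Lys-Des-Arg9-bradykinin (≥50 nM, human) or Des-Arg9-bradykinin (≥1 μM, rat). After 6-20 min, the matching agonist was given at its EC80, and % inhibition relative to maximal achievable inhibition was calculated.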
Consider `CN(C(=O)c1ccc2c(c1)C(NC(=O)CCC1CCCC1)CC2)C1CCN(c2ccnc(N3CCCC3)n2)CC1` (centres unmarked) [CC_H-620, 3-(3-Cyclopentyl-propanoylamino)-N-methyl-N-[1-(2-pyrrolidin-1-yl-pyrimidin-4-yl)-piperidin-4-yl]-2,3-dihydro-1H-indene-5-carboxylic acid amide], for which the inhibition (usually the drop in the measured response relative to a control, in per cent) at 10 µM was determined as 102%.
As for `CN(C)c1nccc(N2CCC(N(C)C(=O)c3ccc4c(c3)C(NC(=O)c3ccccc3Cl)CC4)CC2)n1` (centres unmarked) [CC_H-623, 3-[(2-Chloro-benzoyl)amino]-N-[1-(2-dimethylamino-pyrimidin-4-yl)-piperidin-4-yl]-N-methyl-2,3-dihydro-1H-indene-5-carboxylic acid amide], the inhibition at 10 µM was 101%.
Take `CN(C)c1nccc(N2CCC(N(C)C(=O)c3ccc4c(c3)C(NC(=O)CCC3CCCC3)CC4)CC2)n1` (centres unmarked) [CC_H-629, 3-(3-Cyclopentyl-propanoylamino)-N-[1-(2-dimethylamino-pyrimidin-4-yl)-piperidin-4-yl]-N-methyl-2,3-dihydro-1H-indene-5-carboxylic acid amide]: the inhibition at 10 µM was determined as 101%.

Staying with this assay, now noted: CHO-K1, 10 μM, read-out: % Inhibition (r-B1R) at 10 μM.
With `Cc1cc(N2CCC(N(C)C(=O)c3ccc4c(c3)C(N(C)C(=O)c3cc(C(F)(F)F)ccc3Cl)CC4)CC2)cc(C)n1` (centres unmarked) [CC_H-326, 3-[[2-Chloro-5-(trifluoromethyl)-benzoyl]-methyl-amino]-N-[1-(2,6-dimethyl-pyridin-4-yl)-piperidin-4-yl]-N-methyl-2,3-dihydro-1H-indene-5-carboxylic acid amide], the inhibition at 10 µM was 112%.
Still for that read-out and setting: in the case of `Cc1cc(N2CCC(N(C)C(=O)c3ccc4c(c3)C(NC(=O)CC(C)(C)C)CC4)CC2)cc(C)n1` (centres unmarked) [CC_H-299, 3-(3,3-Dimethyl-butanoylamino)-N-[1-(2,6-dimethyl-pyridin-4-yl)-piperidin-4-yl]-N-methyl-2,3-dihydro-1H-indene-5-carboxylic acid amide] it was 110%; in that of `CN(C(=O)c1ccc2c(c1)C(NC(=O)CC(C)(C)C)CC2)C1CCN(c2ccc3cnccc3c2)CC1` (centres unmarked) [CC_H-362, 3-(3,3-Dimethyl-butanoylamino)-N-(1-isoquinolin-6-yl-piperidin-4-yl)-N-methyl-2,3-dihydro-1H-indene-5-carboxylic acid amide], 110%; in that of `Cc1cc(N2CCC(N(C)C(=O)c3ccc4c(c3)C(NC(=O)CCC3CCCC3)CC4)CC2)cc(C)n1` (centres unmarked) [CC_H-320, 3-(3-Cyclopentyl-propanoylamino)-N-[1-(2,6-dimethyl-pyridin-4-yl)-piperidin-4-yl]-N-methyl-2,3-dihydro-1H-indene-5-carboxylic acid amide], 110%.
Same read-out and setting: next, `CN(C(=O)c1ccc2c(c1)C(NC(=O)c1cc(C(F)(F)F)ccc1Cl)CC2)C1CCN(c2ccncc2)CC1` (centres unmarked) [CC_H-201, 3-[[2-Chloro-5-(trifluoromethyl)-benzoyl]amino]-N-methyl-N-(1-pyridin-4-yl-piperidin-4-yl)-2,3-dihydro-1H-indene-5-carboxylic acid amide]: 111%; `Cc1ccc(NC(=O)N(C)C2CCc3ccc(C(=O)N(C)C4CCN(c5cc(C)nc(C)c5)CC4)cc32)c(C)c1` (centres unmarked) [CC_H-347, 3-[[(2,4-Dimethyl-phenyl)-carbamoyl]-methyl-amino]-N-[1-(2,6-dimethyl-pyridin-4-yl)-piperidin-4-yl]-N-methyl-2,3-dihydro-1H-indene-5-carboxylic acid amide]: 57%; `CN(C(=O)c1ccc2c(c1)C(NC(=O)c1cc(F)ccc1Cl)CCC2)C1CCN(c2ccncc2)CC1` (centres unmarked) [CC_H-246, 8-[(2-Chloro-5-fluoro-benzoyl)amino]-N-methyl-N-(1-pyridin-4-yl-piperidin-4-yl)-5,6,7,8-tetrahydro-naphthalene-2-carboxylic acid amide]: 112%.
Same read-out and setting: in the case of `CN(C(=O)c1ccc2c(c1)C(NC(=O)C1CCCCC1)CC2)C1CCN(c2ccc3cnccc3c2)CC1` (centres unmarked) [CC_H-360, 3-(Cyclohexanecarbonylamino)-N-(1-isoquinolin-6-yl-piperidin-4-yl)-N-methyl-2,3-dihydro-1H-indene-5-carboxylic acid amide] it was 109%.
